For assay [1], the target named is GST-tagged KRAS-G12V (2-169) (Homo sapiens, UniProt P01116, G12V). Put plainly: Nucleotide exchange assay (NEA), SOS-mediated, HTRF, KRAS G12V. It counts as biochemical. Particulars: Table 4; IC50 extracted at 90 min; 80 nM SOS. An excerpt:
(§1) This activity is tightly regulated by GTPase activating proteins (GAPs) and guanine nucleotide exchange factors (GEFs). GEFs, such as SOS1/2, activate Ras proteins by exchanging GDP for GTP, thus returning Ras to its active conformation (Simanshu, Nissley, & McCormick, 2017). […] Homogenous time resolved fluorescence (HTRF) was used to detect SOS-mediated binding of a fluorescent GTP analog, GTP-DY-647P1 (Jena Biosciences NU-820-647P1) to GST-tagged KRAS-G12D (2-169) or to GST-tagged KRAS-G12V (2-169, Reaction Biology, MSC-11-540).
(§2) GST-tagged KRAS-G12D (2-169) and anti-GST MAb Tb Cryptate Gold (CisBio 61GSTTLB) were diluted into assay buffer (20 mM HEPES, pH 7.3, 150 mM NaCl, 5 mM MgCl2, 0.05% BSA 0.0025% NP40, 1 mM DTT) to prepare a 2.5× donor solution. 5× compound was added to the protein mixture and incubated for 1 h at RT. 2.5× acceptor solution containing SOS1cat (564-1049, Reaction Biology MSC-11-502) and GTP-DY-647P1 were then added to the donor KRAS mixture such that the final concentration of the reaction contained 0.25 nM GST-tagged KRAS-G12D (2-169), 20 nM SOScat, and 150 nM GTP-DY-647P1. The reaction was monitored using at RT with the Envision multimode plate reader (Ex/Em 337/665, […]) up to 90 minutes at 5 minute intervals. To monitor KRAS-G12V SOS-mediated nucleotide exchange, 80 nM SOS was added to reaction instead of 20 nM. All other components were the same as previously described. Data was blanked to reactions without SOS1 and % inhibition was calculated such that DMSO only =0% and blank=100%. Curve fitting was done using a 4 parameter fit. Reported IC50 values were extracted at 30 min and 90 min for the KRAS-G12D and KRAS-G12V assays, respectively.

Assay [2] has as its target GST-tagged KRAS-G12D (2-169) (Homo sapiens, UniProt P01116, G12D). The experiment in a line: Nucleotide exchange assay (NEA), SOS-mediated, HTRF, KRAS G12D. Particulars: IC50 extracted at 30 min, 20 nM SOScat. It counts as biochemical.
Source text: as §1, §2
NEA KRAS G12D IC50 (uM) values of selected compounds are depicted in Table 2 with compounds having a value <0.01 uM as ++++; ≥0.01 uM to 0.1 uM as +++; ≥0.1 uM to 1 uM as ++; ≥1 uM to 20 uM as +; and ≥20 uM as NA.

[3] abbreviates: Table 4, read-out: NEA G12D IC50.
Setting [4] is: Table 2, read-out: NEA-G12D (uM) IC50.

Read-outs that look alike come from different tables or passages of the source.

GST-tagged KRAS-G12D (2-169), sequence (P01116 2-169 isoform P01116-2 G12D): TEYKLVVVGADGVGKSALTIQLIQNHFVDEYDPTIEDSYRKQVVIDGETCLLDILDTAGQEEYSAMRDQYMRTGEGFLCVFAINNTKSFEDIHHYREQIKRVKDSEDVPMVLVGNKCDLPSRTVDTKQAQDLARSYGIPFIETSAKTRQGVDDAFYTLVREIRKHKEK
GST-tagged KRAS-G12V (2-169), sequence (P01116 2-169 isoform P01116-2 G12V): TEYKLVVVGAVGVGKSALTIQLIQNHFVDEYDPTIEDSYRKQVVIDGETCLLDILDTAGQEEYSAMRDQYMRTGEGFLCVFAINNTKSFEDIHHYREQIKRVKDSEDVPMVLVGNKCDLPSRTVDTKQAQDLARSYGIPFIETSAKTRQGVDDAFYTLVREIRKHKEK

In the case of `CC(c1nsnc1N)N(C)c1nc(OC[C@@]23CCCN2C[C@H](F)C3)nc(N2CC3(C2)SCc2sc(N)c(C#N)c23)n1` (single isomer, unassigned) [Compound 184B, 2-amino-1′-[4-[[(1*)-1-(4-amino-1,2,5-thiadiazol-3-yl)ethyl]-methyl-amino]-6-[[(2R,8S)-2-fluoro-1,2,3,5,6,7-hexahydropyrrolizin-8-yl]methoxy]-1,3,5-triazin-2-yl]spiro[6H-thieno[2,3-c]thiophene-4,3′-azetidine]-3-carbonitrile], the IC50 in assay [1] lay in the range of 10 to 100 nM; in assay [2] (setting [3]), 0.1 to 1 µM.
Turning to `C[C@@]1(O)CCCN(c2nc(OC[C@@]34CCCN3C[C@H](F)C4)nc(N3CCC4(CCc5sc(N)c(C#N)c54)C3)n2)C1` (stereo partly drawn) [Compound 11, 2-amino-1′-[4-[[(2R,8S)-2-fluoro-1,2,3,5,6,7-hexahydropyrrolizin-8-yl]methoxy]-6-[(3R)-3-hydroxy-3-methyl-1-piperidyl]-1,3,5-triazin-2-yl]spiro[5,6-dihydrocyclopenta[b]thiophene-4,3′-pyrrolidine]-3-carbonitrile], the 50% inhibitory concentration (IC50) in assay [1] lay within 100 to 1000 nM; in assay [2] (setting [4]), 0.1 to 1 µM; in assay [2] (setting [3]) it was 0.1 to 1 µM.
With `CN(CC1(C#N)CC1)c1nc(OC[C@@]23CCCN2C[C@H](F)C3)nc(N2CCC3(CCc4sc(N)c(C#N)c43)C2)n1` (stereo partly drawn) [Compound 14, 2-amino-1′-[4-[(1-cyanocyclopropyl)methyl-methyl-amino]-6-[[(2R,8S)-2-fluoro-1,2,3,5,6,7-hexahydropyrrolizin-8-yl]methoxy]-1,3,5-triazin-2-yl]spiro[5,6-dihydrocyclopenta[b]thiophene-4,3′-pyrrolidine]-3-carbonitrile], the IC50 in assay [1] was 1000 to 20000 nM; in assay [2] (setting [4]), 1 to 20 µM; in assay [2] (setting [3]) it was 1 to 20 µM.
Take `N#Cc1c(N)sc2c1C1(CC2)CN(c2nc(OC[C@@]34CCCN3C[C@H](F)C4)nc(N3CCC[C@@H](O)C3)n2)C1` [Compound 23, 2-amino-1′-[4-[[(2R,8S)-2-fluoro-1,2,3,5,6,7-hexahydropyrrolizin-8-yl]methoxy]-6-[(3R)-3-hydroxy-1-piperidyl]-1,3,5-triazin-2-yl]spiro[5,6-dihydrocyclopenta[b]thiophene-4,3′-azetidine]-3-carbonitrile]: the IC50 was 100 to 1000 nM in assay [1] and 0.1 to 1 µM in assay [2] (setting [3]).
As for `CN(c1nc(OC[C@@]23CCCN2C[C@H](F)C3)nc(N2CC3(CCc4sc(N)c(C#N)c43)C2)n1)C1CCOC1` (stereo partly drawn) [Compound 36, 2-amino-1′-[4-[[(2R,8S)-2-fluoro-1,2,3,5,6,7-hexahydropyrrolizin-8-yl]methoxy]-6-[methyl(tetrahydrofuran-3-yl)amino]-1,3,5-triazin-2-yl]spiro[5,6-dihydrocyclopenta[b]thiophene-4,3′-azetidine]-3-carbonitrile], the IC50 in assay [1] lay within 100 to 1000 nM; in assay [2] (setting [3]), 0.1 to 1 µM.
Take `N#Cc1c(N)sc2c1C1(CC2)CN(c2nc(OC[C@@]34CCCN3C[C@H](F)C4)nc(N3CCC4CC4(CO)C3)n2)C1` (stereo partly drawn) [Compound 41, 2-amino-1′-[4-[[(2R,8S)-2-fluoro-1,2,3,5,6,7-hexahydropyrrolizin-8-yl]methoxy]-6-[1-(hydroxymethyl)-3-azabicyclo[4.1.0]heptan-3-yl]-1,3,5-triazin-2-yl]spiro[5,6-dihydrocyclopenta[b]thiophene-4,3′-azetidine]-3-carbonitrile]: the IC50 in assay [1] fell in the range of 100 to 1000 nM; in assay [2] (setting [3]), 1 to 20 µM.
The corresponding values for `N#CCC12CC1CN(c1nc(OC[C@@]34CCCN3C[C@H](F)C4)nc(N3CC4(CCc5sc(N)c(C#N)c54)C3)n1)C2` (stereo partly drawn) [Compound 42, 2-amino-1′-[4-[1-(cyanomethyl)-3-azabicyclo[3.1.0]hexan-3-yl]-6-[[(2R,8S)-2-fluoro-1,2,3,5,6,7-hexahydropyrrolizin-8-yl]methoxy]-1,3,5-triazin-2-yl]spiro[5,6-dihydrocyclopenta[b]thiophene-4,3′-azetidine]-3-carbonitrile] are 100 to 1000 nM and 1 to 20 µM.
Take `C[C@]1(O)C[C@@H](O)CN(c2nc(OC[C@@]34CCCN3C[C@H](F)C4)nc(N3CC4(CCc5sc(N)c(C#N)c54)C3)n2)C1` [Compound 46, 2-amino-1′-[4-[(3S,5R)-3,5-dihydroxy-3-methyl-1-piperidyl]-6-[[(2R,8S)-2-fluoro-1,2,3,5,6,7-hexahydropyrrolizin-8-yl]methoxy]-1,3,5-triazin-2-yl]spiro[5,6-dihydrocyclopenta[b]thiophene-4,3′-azetidine]-3-carbonitrile]: the half-maximal inhibitory concentration (IC50) in assay [1] is 10 to 100 nM; in assay [2] (setting [3]) it was 0.1 to 1 µM.
On the same counts, the results for `N#Cc1c(N)sc2c1C1(CCC2)CN(c2nc(OCC3(C#N)CC3)nc(OC[C@@]34CCCN3C[C@H](F)C4)n2)C1` [Compound 54, 2-amino-1′-[4-[(1-cyanocyclopropyl)methoxy]-6-[[(2R,8S)-2-fluoro-1,2,3,5,6,7-hexahydropyrrolizin-8-yl]methoxy]-1,3,5-triazin-2-yl]spiro[6,7-dihydro-5H-benzothiophene-4,3′-azetidine]-3-carbonitrile] are 10 to 100 nM and 0.1 to 1 µM.
The corresponding values for `C[C@@]1(O)CCCN(c2nc(OC[C@@]34CCCN3C[C@H](F)C4)nc(N3CCC4(CCCc5sc(N)c(C#N)c54)C3)n2)C1` (stereo partly drawn) [Compound 60, 2-amino-1′-[4-[[(2R,8S)-2-fluoro-1,2,3,5,6,7-hexahydropyrrolizin-8-yl]methoxy]-6-[(3R)-3-hydroxy-3-methyl-1-piperidyl]-1,3,5-triazin-2-yl]spiro[6,7-dihydro-5H-benzothiophene-4,3′-pyrrolidine]-3-carbonitrile] are 1000 to 20000 nM and 1 to 20 µM.
On the same counts, the results for `C[C@@]1(O)CCCN(c2nc(OCC3(CN4CCOCC4)CC3)nc(N3CCC4(CCCc5sc(N)c(C#N)c54)C3)n2)C1` (stereo partly drawn) [Compound 64, 2-amino-1′-[4-[(3R)-3-hydroxy-3-methyl-1-piperidyl]-6-[[1-(morpholinomethyl)cyclopropyl]methoxy]-1,3,5-triazin-2-yl]spiro[6,7-dihydro-5H-benzothiophene-4,3′-pyrrolidine]-3-carbonitrile] are 1000 to 20000 nM and 1 to 20 µM.
On to `C[C@@]1(CO)C[C@H](O)CN1c1nc(OC[C@@]23CCCN2C[C@H](F)C3)nc(N2CC3(CCc4sc(N)c(C#N)c43)C2)n1` [Compound 66, 2-amino-1′-[4-[[(2R,8S)-2-fluoro-1,2,3,5,6,7-hexahydropyrrolizin-8-yl]methoxy]-6-[(2S,4S)-4-hydroxy-2-(hydroxymethyl)-2-methyl-pyrrolidin-1-yl]-1,3,5-triazin-2-yl]spiro[5,6-dihydrocyclopenta[b]thiophene-4,3′-azetidine]-3-carbonitrile], for which the IC50 was 10 to 100 nM in assay [1] and 0.1 to 1 µM in assay [2] (setting [3]).
On the same counts, the results for `C[C@]1(CO)C[C@H](O)CN1c1nc(OC[C@@]23CCCN2C[C@H](F)C3)nc(N2CC3(CCc4sc(N)c(C#N)c43)C2)n1` [Compound 72, 2-amino-1′-[4-[[(2R,8S)-2-fluoro-1,2,3,5,6,7-hexahydropyrrolizin-8-yl]methoxy]-6-[(2R,4S)-4-hydroxy-2-(hydroxymethyl)-2-methyl-pyrrolidin-1-yl]-1,3,5-triazin-2-yl]spiro[5,6-dihydrocyclopenta[b]thiophene-4,3′-azetidine]-3-carbonitrile] are 100 to 1000 nM and 0.1 to 1 µM.
On the same counts, the results for `C[C@]1(O)C[C@H](O)CN(c2nc(OC[C@@]34CCCN3C[C@H](F)C4)nc(N3CC4(CCc5sc(N)c(C#N)c54)C3)n2)C1` [Compound 75, 2-amino-1′-[4-[(3S,5S)-3,5-dihydroxy-3-methyl-1-piperidyl]-6-[[(2R,8S)-2-fluoro-1,2,3,5,6,7-hexahydropyrrolizin-8-yl]methoxy]-1,3,5-triazin-2-yl]spiro[5,6-dihydrocyclopenta[b]thiophene-4,3′-azetidine]-3-carbonitrile] are 100 to 1000 nM and 1 to 20 µM.
As to `N#Cc1c(N)sc2c1C1(CC2)CN(c2nc(OCC3(O)CC3)nc(OC[C@@]34CCCN3C[C@H](F)C4)n2)C1` [Compound 76, 2-amino-1′-[4-[[(2R,8S)-2-fluoro-1,2,3,5,6,7-hexahydropyrrolizin-8-yl]methoxy]-6-[(1-hydroxycyclopropyl)methoxy]-1,3,5-triazin-2-yl]spiro[5,6-dihydrocyclopenta[b]thiophene-4,3′-azetidine]-3-carbonitrile], the IC50 in assay [1] was 100 to 1000 nM; in assay [2] (setting [3]), 1 to 20 µM.
